According to US20170157212A1, “CDK MODULATORS AND METHODS FOR THE TREATMENT OF CANCER” (Salk Institute for Biological Studies, priority 2015, published 2017):
“Also recorded” adds a separate entry of the source.

Assays:
CDK8 = target: T1, CDK8 (Homo sapiens, UniProt P49336); assay: Co-immunoprecipitation of CRIF1 with CDK8; type: binding
T1 construct: endogenous in cells
Text: (§1) FIGS. 5A-5I. The Mitochondrial OX-PHOS Regulator, CRIF1, is a Novel Subunit of the Human CDK12 Kinase Complex. (A) Identification of CRIF1 as a near-stoichiometric subunit of the native CDK12 kinase complex. MudPIT analysis of CDK12 complexes from HEK293 cells that stably express HA-tagged full-length human CDK12. The HA-CDK12 complex was affinity-purified using anti-HA antibody and visualized by SDS-PAGE and silver-stain. (B) List of the identified proteins in the HA-CDK12 complex from (A). (C) Endogenous CRIF1 co-immunoprecipitates with native CDK12 in U2OS cell extracts. Shown is an immunoblot analysis of CRIF1, CCNK, and the chaperone proteins CDC37 and HSP90 in an anti-CDK12 immunoprecipitate. (D) CRIF1 is a specific subunit of the CDK12 complex. Native CRIF1 was immunoprecipitated from U2OS cells using an anti-CRIF1 antibody and analyzed by co-immunoprecipitation for association with various CDKs, as indicated. […] FLAG-CRIF1 proteins containing different C-terminal truncations were co-expressed with HA-CDK12 (aa 985-1490) and analyzed for binding by co-immunoprecipitation and immunoblot. […] Cell viability was analyzed after 72 hr. […] Expression of the mitochondrial MTCO-1 (COX1) protein was assessed using two different antisera. […] Each fraction (T; total, C:cytosolic, M:membrane/organelle, and N:nuclear) was analyzed by immunoblot using the indicated antibodies. […]

CDK2 = target: T2, CDK2 (Homo sapiens, UniProt P24941); assay: Co-immunoprecipitation of CRIF1 with CDK2; type: binding
T2 construct: endogenous in cells
Text: as §1

CDK12 = assay: Co-immunoprecipitation of CRIF1 with CDK12; type: binding, human; details: native complexes
Text: as §1, with “(D) CRIF1 is a specific subunit of the CDK12 complex.” left out
It was next evaluated how CRIF1 targets CDK12. […]

T1 sequence (P49336 whole entry): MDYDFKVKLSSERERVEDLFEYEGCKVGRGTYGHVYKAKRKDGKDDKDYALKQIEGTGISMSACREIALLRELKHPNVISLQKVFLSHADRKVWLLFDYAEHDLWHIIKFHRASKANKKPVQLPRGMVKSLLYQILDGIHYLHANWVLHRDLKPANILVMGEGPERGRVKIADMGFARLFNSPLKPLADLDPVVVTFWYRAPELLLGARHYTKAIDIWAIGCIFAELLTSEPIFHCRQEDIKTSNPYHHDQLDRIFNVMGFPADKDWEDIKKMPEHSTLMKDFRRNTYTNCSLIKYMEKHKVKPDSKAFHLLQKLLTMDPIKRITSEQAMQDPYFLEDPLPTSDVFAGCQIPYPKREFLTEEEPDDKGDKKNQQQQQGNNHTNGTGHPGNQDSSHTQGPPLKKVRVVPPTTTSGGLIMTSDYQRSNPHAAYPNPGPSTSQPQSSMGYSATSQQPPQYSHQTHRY
CDK12, sequence (Q9NYV4 whole entry): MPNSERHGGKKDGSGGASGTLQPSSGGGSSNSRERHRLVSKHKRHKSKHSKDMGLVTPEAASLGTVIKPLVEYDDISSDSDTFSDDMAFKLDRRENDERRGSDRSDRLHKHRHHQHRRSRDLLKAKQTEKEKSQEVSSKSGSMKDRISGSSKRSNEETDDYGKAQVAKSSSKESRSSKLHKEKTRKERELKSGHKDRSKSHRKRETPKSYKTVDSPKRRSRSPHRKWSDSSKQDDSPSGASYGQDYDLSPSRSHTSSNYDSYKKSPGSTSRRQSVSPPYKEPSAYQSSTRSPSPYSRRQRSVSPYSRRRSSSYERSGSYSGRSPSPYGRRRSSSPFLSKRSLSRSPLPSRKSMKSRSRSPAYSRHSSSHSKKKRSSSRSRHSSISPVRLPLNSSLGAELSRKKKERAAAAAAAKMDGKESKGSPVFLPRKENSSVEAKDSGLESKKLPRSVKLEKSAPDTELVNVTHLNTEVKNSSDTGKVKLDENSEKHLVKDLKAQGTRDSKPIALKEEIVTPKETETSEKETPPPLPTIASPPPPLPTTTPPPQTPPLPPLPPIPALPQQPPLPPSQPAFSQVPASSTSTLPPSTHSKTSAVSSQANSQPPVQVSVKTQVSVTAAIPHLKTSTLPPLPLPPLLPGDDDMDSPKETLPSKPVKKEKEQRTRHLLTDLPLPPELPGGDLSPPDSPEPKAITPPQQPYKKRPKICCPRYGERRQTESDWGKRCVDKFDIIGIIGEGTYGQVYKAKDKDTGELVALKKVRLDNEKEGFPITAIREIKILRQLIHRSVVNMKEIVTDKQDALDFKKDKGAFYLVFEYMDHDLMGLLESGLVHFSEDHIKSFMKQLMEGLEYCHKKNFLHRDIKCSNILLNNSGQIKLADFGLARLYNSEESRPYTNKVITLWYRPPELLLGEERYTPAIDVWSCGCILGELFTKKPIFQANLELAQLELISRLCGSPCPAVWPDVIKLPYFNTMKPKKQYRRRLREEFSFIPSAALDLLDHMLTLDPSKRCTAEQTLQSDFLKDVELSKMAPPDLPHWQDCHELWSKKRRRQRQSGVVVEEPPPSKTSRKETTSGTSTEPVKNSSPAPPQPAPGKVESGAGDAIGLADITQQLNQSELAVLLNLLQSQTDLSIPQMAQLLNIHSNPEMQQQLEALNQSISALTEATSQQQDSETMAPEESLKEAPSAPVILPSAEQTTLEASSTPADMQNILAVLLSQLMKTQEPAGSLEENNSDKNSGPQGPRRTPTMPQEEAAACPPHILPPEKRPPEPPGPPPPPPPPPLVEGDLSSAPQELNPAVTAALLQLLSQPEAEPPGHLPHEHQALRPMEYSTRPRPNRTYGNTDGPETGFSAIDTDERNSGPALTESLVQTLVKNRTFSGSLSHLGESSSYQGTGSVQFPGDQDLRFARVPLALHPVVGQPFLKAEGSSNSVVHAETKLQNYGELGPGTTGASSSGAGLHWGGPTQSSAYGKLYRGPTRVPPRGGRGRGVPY
CDK12, sequence (O75909 whole entry partner): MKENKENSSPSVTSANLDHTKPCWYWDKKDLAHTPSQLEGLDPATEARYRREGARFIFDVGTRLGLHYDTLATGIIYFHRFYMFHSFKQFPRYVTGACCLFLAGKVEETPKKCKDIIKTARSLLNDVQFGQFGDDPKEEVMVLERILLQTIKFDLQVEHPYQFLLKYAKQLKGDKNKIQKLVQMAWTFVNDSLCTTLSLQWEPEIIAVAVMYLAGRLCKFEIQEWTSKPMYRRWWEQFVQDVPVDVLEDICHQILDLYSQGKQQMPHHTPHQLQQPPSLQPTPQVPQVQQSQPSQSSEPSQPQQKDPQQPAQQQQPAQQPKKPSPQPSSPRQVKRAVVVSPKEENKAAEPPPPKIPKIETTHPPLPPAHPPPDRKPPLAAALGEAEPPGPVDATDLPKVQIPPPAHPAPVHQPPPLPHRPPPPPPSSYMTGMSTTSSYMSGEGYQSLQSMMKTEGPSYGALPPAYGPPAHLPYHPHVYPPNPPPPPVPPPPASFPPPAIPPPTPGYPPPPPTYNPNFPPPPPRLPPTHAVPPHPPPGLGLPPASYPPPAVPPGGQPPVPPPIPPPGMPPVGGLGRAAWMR

Growth Arrest and DNA Damage-Inducible Proteins-Interacting Protein 1 [CRIF1]
presence in / binding to CDK8 complexes (CDK8): not present; also recorded: does not bind | presence in / binding to CDK2 complexes (CDK2): not present; also recorded: nor was binding to Cdk2 detected | presence of CRIF1 in CDK12 complexes (CDK12): present
